In PMC12320245 (International Journal of Biological Sciences, 2025):

Columns and labels:
TBI rats = experiment: Controlled cortical impact TBI: modified neurological severity score; format: in vivo, rat
Protocol: (§1) This study used male Sprague-Dawley rats weighing 300-350 g and aged 8 weeks, obtained from DBL Co. (Chungcheongbuk-do, Republic of Korea). The rats were housed in a controlled environment with a temperature of 20 ± 2 °C, a relative humidity of 55 ± 5%, and a 12-hour light/dark cycle. They were provided ad libitum access to food and water. To minimize stress associated with transportation, animals underwent a one-week acclimatization period before the start of the experiments. All experimental procedures were conducted in compliance with the guidelines of the National Institutes of Health for the care and use of laboratory animals and were approved by the Hallym University Institutional Animal Care and Use Committee (protocol # Hallym 2022-23, approved on July 15, 2022). This manuscript follows the principles outlined in the Animal research: reporting in vivo experiments (ARRIVE) guidelines.
(§2) A controlled cortical impact (CCI) model was used to induce TBI in rats. Animals were anesthetized with 1-1.5% isoflurane in a 30:70 oxygen-to-nitrous oxide mixture and securely positioned in a stereotaxic frame. […]
The mNSS provides a quantitative measure of neurological function, with scores ranging from 0 (normal function) to 18 (severe dysfunction). The test evaluates multiple parameters to comprehensively assess neurological deficits: 1) Tail Suspension (3 points)—The rat's ability to be lifted by its tail is assessed, with higher scores indicating increased difficulty or inability to lift. 2) Balance and Posture (3 points)—The rat's ability to maintain proper posture and balance when placed on a flat surface is observed and scored. 3) Sensory Function ([…])—Sensory responses, including reactions to tactile or pain stimuli, are evaluated. 4) Beam Balance Test (6 points)—The rat's ability to walk on a narrow beam is assessed. […] 5) Reflexes and Abnormal Movements (4 points)—The presence or absence of reflexes, as well as abnormal behaviors or movements, are recorded and scored.

hippocampus of TBI rats [1] = experiment: Controlled cortical impact TBI: hippocampal cAMP ELISA; format: in vivo; settings: rat, 3 hours post-TBI, AMX 100 mg/kg i.p.
Protocol: as §1
as §2, with “frame. A 3 mm craniotomy was performed using a portable drill at a site 2.8 mm lateral to the midline and 3.0 mm posterior to Bregma.” for “frame.”

[2] = tested on: primary hippocampal neurons; experiment: Scratch injury: lysosomal zinc (FluoZin-3 / LysoTracker); format: cell-based, rat; settings: scratched neurons, 24 hours after scratch
Protocol: (§3) Primary hippocampal neurons were obtained from embryonic day 18 (E18) Sprague-Dawley rat embryos. Pregnant rats were anesthetized using 2-3% isoflurane in a gas mixture of 70% nitrous oxide and 30% oxygen. Following euthanasia, the hippocampi were carefully dissected, minced, and enzymatically dissociated using TrypLE Express (Gibco, NY, USA) for 10 minutes at 37°C. The tissue was further mechanically dissociated using fire-polished glass pipettes, and the resulting cell suspension was filtered through a 70 μm cell strainer to remove debris. Neurons were seeded at a density of 3 × 10^5 cells per well in 24-well plates pre-coated with poly-L-lysine (Sigma-Aldrich, Saint Louis, MO, USA). Cells were maintained in neurobasal medium supplemented with B-27 (Thermo Fisher Scientific, Waltham, MA, USA), GlutaMAX (Gibco), and penicillin-streptomycin. The cultures were incubated at 37.5°C in a humidified atmosphere containing 5% CO₂. After seven days of growth, neurons were fixed with 4% paraformaldehyde (PFA) for 15 minutes at room temperature and subsequently stored at 4°C until their further use for immunostaining.
(§4) A scratch injury model was used to mimic TBI in vitro. […] After the treatment period, neuronal damage and recovery were assessed using appropriate evaluation methods.

[3] = tested on: LAMP2 in primary hippocampal neurons; experiment: Scratch injury: LAMP2 Western blot; format: cell-based, rat; settings: scratch-AMX vs scratch-vehicle, 24 hours after scratch
Protocol: as §3, with “The cultures were incubated at 37.5°C in a humidified atmosphere containing 5% CO₂. After seven days of growth, neurons were fixed with 4% paraformaldehyde (PFA) for 15 minutes at room temperature and subsequently stored at 4°C until their further use for immunostaining.” left out
as §4
Twenty-four hours after the scratch injury, cells were lysed using RIPA buffer (IBS-BR002, iNtRON, Republic of Korea) supplemented with protease and phosphatase inhibitors (Sigma, USA). […] Protein detection was performed using a chemiluminescence bioimaging device (Amersham Imager 680, Cytiva, MA, USA), and the results were analyzed to determine protein expression levels.

hippocampus of TBI rats [4] = experiment: Controlled cortical impact TBI: NeuN immunohistochemistry; format: in vivo, rat; settings: CA1, CA3, GCL, hilus, 2 weeks post-TBI, vs TBI-vehicle
Protocol: as §1
as §2, with “frame. A 3 mm craniotomy was performed using a portable drill at a site 2.8 mm lateral to the midline and 3.0 mm posterior to Bregma.” for “frame.”

## CC(C)c1ccc2oc3nc(N)c(C(=O)O)cc3c(=O)c2c1 [AMX, amlexanox]
TBI rats; TBI-AMX vs TBI-vehicle
  beam balance test of mNSS (balance control, videos): performed better
TBI rats; between day 1 and subsequent time points, vs vehicle
  ΔmNSS: greater improvements in ΔmNSS
TBI rats; days 1 to 7 after TBI, daily AMX 100 mg/kg i.p., vs vehicle
  mNSS scores: lower mNSS scores
Hippocampus of TBI rats [1]
  hippocampal cAMP levels (ELISA): restored cAMP levels to values comparable to sham controls
[2]
  lysosomal zinc levels (FluoZin-3 / LysoTracker): restored lysosomal zinc levels to near-normal levels
[3]
  LAMP2 expression: significantly preserved
Hippocampus of TBI rats [4]
  NeuN-positive cell counts: higher NeuN-positive cell counts
